Data: US20210230554A1, “GENERATION OF FUNCTIONAL BETA CELLS FROM HUMAN PLURIPOTENT STEM CELL-DERIVED ENDOCRINE PROGENITORS” (Novo Nordisk A/S, priority 2018, published 2021)

How the values were obtained:
[1] = tested on: stem cell-derived endocrine progenitor cells; test: BC step 1 medium with or without Nicotinamide: BC FACS phenotype; type: cell-based, human; conditions: BC step 1 medium with or without 10 mM Nicotinamide, 4 days, then 2 days BC step 2; FIG. 16
Protocol: To evaluate the effect of Nicotinamide, stem cell-derived endocrine progenitor cells were differentiated in BC step 1 medium with or without Nicotinamide, followed by a culturing step in BC step 2 medium.
Cell were differentiated to endocrine progenitors and then subjected to BC step 1 medium for 4 days (BC step 1 medium comprises RPMI1640 with Glutamax, 0.1% Pen/Strep, 12% KOSR, 10 μM Alk5i, 1 μM T3, 1 μM DZNEP, 10 μg/ml heparin, 25 μM DAPT, and with or without 10 mM Nicotinamide).
Cells were then subjected to BC step 2 cell culture medium for 2 days before analysing by FACS. BC step 2 medium consisted of: RPMI1640 with Glutamax, 0.1% Pen/Strep, 12% KOSR, 50 μM GABA, 10 μM Alk5i, 1 μM T3 and 10 μM DZNEP.

[2] = tested on: endocrine progenitor cells; test: BC step 1 screen: flow cytometry of INS, NKX6.1 and GCG expression; type: cell-based, human; conditions: added on top of BC step 1 medium comprising DZNEP, Alk5i, Heparin, Nicotinamide; FIG. 3
Protocol: As a first step towards generating fully functional mature beta cells, we screened for factors to generate maximal numbers of immature INS+/NKX6.1+ cells (BC step 1 screen). […]
Compounds were screened for their ability to induce INS+, NKX6.1+ double positive immature BCs and few GCG positive cells within a 7 days period. Media change was performed daily. Cells were fixed at day 4 and day 7 of BC step 1 and analysed for INS NKX6.1 and GCG expression using flow cytometry (see Table 1 and FIG. 2). Briefly, differentiated endocrine cells were dispersed into single-cell suspension by incubation with TrypLE Express at 37° C. for 10 min. Differentiated endocrine cells were resuspended in 4% paraformaldehyde, washed in PBS followed by incubation with primary antibodies overnight and then secondary antibodies for 1 hour. The differentiated hPSCs co-expressed C-peptide+/NKX6.1+ with few cells expressing the α-cell hormone glucagon (FIG. 2). When quantified by flow cytometry, 48% of the cells co-expressed C-peptide+/NKX6-1 (FIG. 2), more than previously reported with stem cell-derived beta cells (Pagliuca et al., Cell. 2014 Oct. 9; 159(2):428-39. doi: 10.1016/j.cell.2014.09.040; Rezania et al., Nat Biotechnol. 2014 November; 32(11):1121-33. doi: 10.1038/nbt.3033. Epub 2014 Sep. 11).
Hits compounds of Table 2 have been identified in a primary screen.

hPSC-derived beta cells = test: Perfusion assay of dynamic human insulin secretion in vitro; type: cell-based
Protocol: Mature beta cells are functionally defined by their rapid response to elevate glucose. Secretion of human insulin by beta cells at the end of BC step 2 method with BC step 2 medium comprising 50 μM GABA, 10 μM Alk5i, 1 μM T3 was measured as repeated responses to 20 mM glucose±1 μM exendin-4 a GLP1-receptor agonist or ±the anti-diabetic sulfonylurea compound Tolbutamide within a perfusion system.
Briefly, groups of 300 hand-picked, clusters of hESC- or hiPSC-derived cell clusters were suspended with beads (Bio-Rad #150-4124) in plastic chambers of Biorep PERFUSION SYSTEM (Biorep #PERI-4.2). Under temperature and CO2-controlled conditions, the cells were perfused at 0.5 ml min−1 with a Krebs buffer. Prior to sample collection, cells were equilibrated under basal (2 mM glucose) conditions for 1 h. During perfusion cells were exposed to repeated challenges with 20 mM glucose±1 μM exendin-4 or ±100 μM Tolbutamide. At the end of perfusion, cells were exposed to cAMP-elevating agents (dbcAMP) on top of 20 mM glucose. Insulin secretion was measured by human insulin ELISA (Mercodia).

NC(=O)c1cccnc1 [Nicotinamide]
BC FACS phenotype [1]: not affected

C[C@H](NC(=O)Cc1cc(F)cc(F)c1)C(=O)NC(C(=O)OC(C)(C)C)c1ccccc1 (some centres unmarked) [DAPT]
number of INS+/NKX6.1+ cells [2]: highest number of INS+/NKX6.1+ cells

CCCCNC(=O)NS(=O)(=O)c1ccc(C)cc1 [tolbutamide]
effect on insulin secretion (hPSC-derived beta cells; day 7 of BC step 2, 20 mM glucose ± 100 μM Tolbutamide): significant additive effect

Dibutyryl-cAMP [dbcAMP]
number of INS+/NKX6.1+ cells [2]: highest number of INS+/NKX6.1+ cells

exendin-4
level of insulin secretion in the hPSC-derived beta cells (hPSC-derived beta cells; 20 mM glucose ± 1 μM exendin-4): increased the level of insulin secretion
